{
  "source": "patent US5455229A",
  "about": "“Method for minimizing and containing ischemic and reperfusion injury” (Eli Lilly and Company, priority 1992, dated 1995)",
  "key": {"beagle dogs": {"test_system": "beagle dogs", "assay": "In vivo assay: myocardial infarct size following coronary artery occlusion (1 hr) and reperfusion (5 hr) in anesthetized dogs", "design": "species or system dog", "settings": "dogs infused with aprotinin, control dogs 37.9±5.4%, P<0.05", "experimental": "Adult male beagle dogs weighing approximately 9-14 kg were anesthetized with pentobarbital sodium (30 mg/kg, i.v.). The tracheae were intubated, and the dogs were ventilated with room air delivered from a Harvard respirator (ventilation rate of 16 cycles/min, tidal volume, 25 ml/kg). Body temperature was maintained at 37-°38° C. with a heating pad. Catheters were placed in the left femoral artery and vein for measurement of phasic arterial blood pressure (Starham transducer, P23ID) and i.v. infusion of drug solutions, respectively. Mean arterial blood pressure was calculated as diastolic blood pressure plus 1/3 pulse pressure. Cardiac rate was monitored by a cardiotachometer that was triggered by the systolic pressure pulse, while the pressure rate product was monitored as an index of myocardial oxygen demand. […] Directly measured parameters were recorded continuously on a multichannel oscillograph (Beckman Instruments,Inc., Fullerton Calif.; model R611).\nA left thoracotomy was performed at the fifth intercostal space, the heart was suspended in a pericardial cradle, and the left circumflex coronary artery (LCX) was isolated distal to its atrial branch and proximal to any major ventricular branches. Baseline circumflex coronary artery blood flow was measured using a calibrated flowprobe (Carolina Medical Electronics, 6 mm I.C.) connected to a Carolina flowmeter (model FM501). […]"}, "dog": {"test_system": "dog", "settings": "Diaz et al., Am. J. Cardiol. 40: 541-549, 1977; cited from earlier work"}},
  "data": [
    {"substance": "aprotinin [reference compound]", "values": [
      {"measurement": "infarct size, % of the left ventricular mass at risk of necrosis", "setting": "beagle dogs", "result": "24.8±2.4", "unit": "%"},
      {"measurement": "myocardial ischemic injury associated with coronary artery occlusion", "setting": "dog", "result": "has been shown to limit myocardial ischemic injury"}
    ]}
  ]
}
